Data from patent US20230416258A1, “BENZ[…], AND PREPARATION METHOD THEREFOR AND USE THEREOF” (CHINA PHARMACEUTICAL UNIVERSITY, priority 2020, published 2023).
Like-named read-outs stand apart in the source and are kept apart here.

Experiments:
[1] = system: GABA-activated Cl− current (GABAA receptor) in HEK 293T cells; assay: Effect of drugs on GABA-activated current in cells by cell patch clamp; type: cell-based; conditions: for Enhancement percentage Emax for 2 μM GABA current (within 3-30 μM): corresponding concentration 20 μM
Description: Test compounds were dissolved at various concentrations in an extracellular buffer (140 mM NaCl, 4.7 mM KCl, 10 mM HEPES, 2 mM CaCl2), 10 mM glucose, 1 mM MgCl2, pH 7.4). HEK 293T cells were seeded on glass coverslips and cultured in DMEM media at 37° C. with 5% CO2 for 24 h. GABA Cl^− current was subjected to whole cell recording using an HEKA EPC 10USB patch clamp amplifier. 2 μM GABA was used for exciting Cl^− current, with the membrane potential clamped at −60 mV. The cells were treated with the test compound and 2 μM GABA simultaneously, and the induction effect on and Emax of Cl^− current in the same cell were recorded.
Maximum enhancement percentage Emax for 2 μM GABA current and corresponding concentration (μM): 100% for normal humans. The greater the percentage, the lower the corresponding concentration, and the greater the depth of anesthesia.

[2] = In vitro plasma half-life of drug; type: in vitro ADME, SD rats; conditions: plasma (heparin sodium); SD rat plasma, 37° C.
Description: Preparation of plasma: after the SD rats were fasted and kept with water for 12 h, blood was collected through orbital venous plexus. The freshly collected blood was added into a centrifuge tube containing heparin sodium and centrifuged at 5000 rpm for 10 min at 4° C. The supernatant was slowly pipetted and subpackaged. Finally, the collected SD rat plasma was sealed, marked, and stored at −20° C. for later use.
Preparation of target compound sample: the target compound was precisely weighed by an analytical balance and prepared into a stock solution at a concentration of 2 mg/mL (solvent: Vacetone:VTween 80:Vnormal saline=1:1:3) for later use.
Determination of in vitro half-life of target compound sample: 20 μL of test compound stock solution and 80 μL of rat plasma were mixed uniformly. Nine parallel ep tubes were taken, marked as corresponding test tubes of 0 min, 1 min, 2 min, 3 min, 5 min, 10 min, 15 min, 20 min, and 30 min, respectively, and placed in a water bath at 37° C. for incubation for 0 min, 1 min, 2 min, 3 min, 5 min, 10 min, 15 min, 20 min, and 30 min, respectively. 50 μL of mixed solution were taken from the corresponding ep tube at each time point, and […] of acetonitrile was added for precipitating protein. The mixture was vortexed for 10 min using a mixer and centrifuged at 12000 rpm for 15 min. Then, the supernatant was centrifuged at 12000 rpm for 10 min. The optimal detection method for the target compound in the MRM mode was determined using Intellistat software in UPLC-MS/MS, the peak area of the corresponding mass spectrum was integrated, and the plasma half-life of the compound was calculated.

[3] = system: SD rats; assay: Test for drug-induced disappearance of righting reflex in rats; type: in vivo; conditions: single rapid bolus via tail vein
Text: In anesthetic drug experiments, latency generally refers to the time from the start of administration to the loss of consciousness of the subject. The shorter latency is preferred, indicating a rapid onset of action after administration. The duration of anesthesia generally refers to the duration of time from the loss of consciousness to the restoration of consciousness of the subject. The duration of the drug will vary from animal model to animal species. Too long anesthesia may produce adverse cardiovascular and respiratory responses, such as adverse neurological effects to the subject, including sleepiness and dizziness; meanwhile, too short duration of anesthesia may affect the anesthesia effect, causing problems such as increase of anesthesia dosage during the operation.
SD rats (male, 200-280 g) were randomly grouped and subjected to a single administration by rapid bolus via the tail vein. The latency and duration of righting reflex in the rats were recorded.

[4] = system: KM mice; assay: Test for drug-induced disappearance of righting reflex in mice; type: in vivo; conditions: single rapid bolus via tail vein
Procedure, shortened: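 Female KM mice (18–25 g), randomly grouped, given a single rapid bolus via tail vein. Latency (administration to loss of righting reflex) and duration (loss to recovery) recorded.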

[5] = system: SD rats; assay: Induction of anesthesia in rats by continuous infusion of drug for 20 min; type: in vivo; conditions: initial dose 20 mg/kg bolus, maintenance dose 0.2 (mg/kg)/min for 20 min, after infusion completed
Description: SD rats (male, 200-280 g) were randomly grouped and subjected to administration of an initial dose by rapid bolus via the tail vein, followed by a continuous infusion with a maintenance dose for 20 min.
After the infusion was completed, the duration of the righting reflex and the time from wake-up to recovery in rats were recorded.

[6] = system: hCMEC/D3 cells; assay: Rate of drug passing through in vitro blood-brain barrier (Transwell); type: in vitro ADME; conditions: hCMEC/D3 monolayer, compound 0.1 mg/mL
Description: A Transwell device (pore size: 5.0 μm) was placed in a 24-well cell culture well; then hCMEC/D3 cells at 1×10^5 cells/mL were transferred to the upper microwells of Transwell at 150 μL/well, and cell culture medium was added to the lower microwells. After the bottom was covered by a single layer of the cells, the medium in the wells was replaced with EBM-2 complete medium containing 1% FBS, and the cells were cultured in a CO2 incubator for 10 days until a fully dense single layer of the cells was formed. When a fully dense single layer of the cells was formed, the compound at 0.1 mg/mL was added to the lower medium, and after 5 min, the concentration of the compound in the upper medium was measured to calculate the permeability:
Pcompound%=Cupper compound/Clower compound×100%

[7] = read-out: Positive enhancement EC50 (μM) for 2 μM GABA-induced current, −60 mV
[8] = 2 μM GABA, −60 mV, read-out: Positive enhancement EC50 (μM) for 2 μM GABA-induced current

Row | SMILES | EC50 [1, 7] | Enhancement percentage Emax for 2 μM GABA current (within 3-30 μM) ([1]; −60 mV) | half-life at 0.4 mg/mL [2] | Latency [3] | Duration ([4]; 30 mg/kg) | Latency ([4]; 30 mg/kg) | Duration of anesthesia [5] | Time from wake-up to recovery [5] | In vitro blood-brain barrier, compound permeability at 5 min [6] | Duration ([4]; 60 mg/kg) | Latency ([4]; 60 mg/kg) | Duration ([4]; 100 mg/kg) | Latency ([4]; 100 mg/kg) | EC50 [1, 8] | Duration [3]
1 | COC(=O)CC[C@@H]1N=C(c2ccccc2F)c2cc(Br)ccc2-n2c(S)nnc21 [Compound 4, methyl (S)-3-(8-bromo-6-(2-fluorophenyl)-1-mercapto-4H-benzo[f][1,2,4]triazolo[4,3-a][1,4]diazepin-4-yl)propionate] | 0.69 µM | 252% (20 μM) | 104 s | 0.35 min | 9.21 min | 0.88 min | 5.21 min | 15.6 min | 68.6% |  |  |  |  |  | 
2 | CCCSc1nnc2n1-c1ccc(Br)cc1C(c1ccccc1Cl)=N[C@H]2CCC(=O)OC [Compound 30, methyl (S)-3-(8-bromo-6-(2-chlorophenyl)-1-(propylthio)-4H-benzo[f][1,2,4]triazolo[4,3-a][1,4]diazepin-4-yl)propionate] |  |  | 27 s |  | 7.44 min | 0.42 min |  |  |  |  |  |  |  |  | 
3 | COC(=O)CC[C@@H]1N=C(c2ccccc2Cl)c2cc(Cl)ccc2-n2c(SCCO)nnc21 [Compound 32, methyl (S)-3-(8-chloro-6-(2-chlorophenyl)-1-((2-hydroxyethyl)thio)-4H-benzo[f][1,2,4]triazolo[4,3-a][1,4]diazepin-4-yl)propionate] |  |  | 16.2 s |  | 20.73 min | 0.73 min |  |  |  |  |  |  |  |  | 
4 | COC(=O)CC[C@@H]1N=C(c2ccccc2Cl)c2cc(Br)ccc2-n2c(SCCO)nnc21 [Compound 33, methyl (S)-3-(8-bromo-6-(2-chlorophenyl)-1-((2-hydroxyethyl)thio)-4H-benzo[f][1,2,4]triazolo[4,3-a][1,4]diazepin-4-yl)propionate] | 0.44 µM | 279% (20 μM) | 53.4 s | 0.52 min |  |  | 17.3 min | 20.2 min | 83.4% | 6.41 min | 0.21 min | 12.38 min | 0.22 min |  | 
5 | COC(=O)CC[C@@H]1N=C(c2ccccc2Cl)c2cc(Cl)ccc2-n2c(SCCN)nnc21 [Compound 35, methyl (S)-3-(8-chloro-6-(2-chlorophenyl)-1-((2-aminoethyl)thio)-4H-benzo[f][1,2,4]triazolo[4,3-a][1,4]diazepin-4-yl)propionate] | 0.36 µM | 318% (20 μM) | 12.6 s | 0.25 min |  |  | 51.3 min | 33.8 min | 84.6% | 40.26 min | 0.18 min |  |  |  | 
6 | COC(=O)CC[C@@H]1N=C(c2ccccc2Cl)c2cc(Br)ccc2-n2c(SCCN)nnc21 [Compound 36, methyl (S)-3-(8-bromo-6-(2-chlorophenyl)-1-((2-aminoethyl)thio)-4H-benzo[f][1,2,4]triazolo[4,3-a][1,4]diazepin-4-yl)propionate] | 0.58 µM | 227% (20 μM) | 34.2 s | 0.28 min |  |  | 9.37 min | 17.5 min | 71.6% | 8.82 min | 0.34 min |  |  |  | 
7 | COC(=O)CC[C@@H]1N=C(c2ccccc2Cl)c2cc(Cl)ccc2-n2c(SCCN3CCCC3)nnc21 [Compound 119, methyl (S)-3-(8-chloro-6-(2-chlorophenyl)-1-(2-((pyrrolidin-1-yl)ethyl)thio)-4H-benzo[f][1,2,4]triazolo[4,3-a][1,4]diazepin-4-yl)propionate] |  | 278% (20 μM) |  | 0.43 min | 30.86 min | 0.46 min | 12.83 min | 32.7 min | 83.3% |  |  |  |  | 0.43 µM | 13.27 min
8 | COC(=O)CC[C@@H]1N=C(c2ccccc2Cl)c2cc(Cl)ccc2-n2c(SCC(=O)N3CCN(C)CC3)nnc21 [Compound 129, methyl (S)-3-(8-chloro-6-(2-chlorophenyl)-1-((2-(4-methylpiperazin-1-yl)2-oxyethyl)thio)-4H-benzo[f][1,2,4]triazolo[4,3-a][1,4]diazepin-4-yl)propionate] |  | 257% (20 μM) |  | 0.37 min | 13.27 min | 0.56 min | 10.22 min | 17.7 min | 75.9% |  |  |  |  | 0.42 µM | 17.28 min
9 | COC(=O)CC[C@@H]1N=C(c2ccccc2Cl)c2cc(Cl)ccc2-n2c(Sc3cn(C)cn3)nnc21 [Compound 141, methyl (S)-3-(8-chloro-6-(2-chlorophenyl)-1-((1-methyl-1H-imidazol-4-yl)thio)-4H-benzo[f][1,2,4]triazolo[4,3-a][1,4]diazepin-4-yl)propionate] | 0.61 µM | 295% (20 μM) |  | 0.21 min | 8.76 min | 0.74 min | 13.21 min | 22.19 min | 76.6% |  |  |  |  |  | 
10 | COC(=O)CC[C@@H]1N=C(c2ccccc2F)c2cc(Br)ccc2-n2c1n[nH]c2=S [Tautomer of compound 4, methyl (S)-3-(8-bromo-6-(2-fluorophenyl)-1-thio-2,4-dihydro-1H-benzo[f][1,2,4]triazolo[4,3-a][1,4]diazepin-4-yl) propionate] |  | 238% (20 μM) |  | 0.48 min | 2.95 min | 0.38 min | 4.84 min | 10.3 min | 75.8% |  |  |  |  | 0.65 µM | 15.4 min
